Drawing on patent US6096752A, “Method for the preparation of tertiary amines, a compound useful therefor and alpha-2-receptor active tetrahydroisoquinoline derivatives” (priority 1998, dated 2000), this text covers Ki for twelve molecules.

pKi: −log10 of the molar value.

In this assay the target is T1, human α2A (α2 -C10)-adrenoceptor (Homo sapiens, UniProt P08913).
T1 construct: expressed in transfected cells; host or cells: S115 cells (recombinant mammalian S115 cell line), crude particulate homogenate
T1 sequence (P08913 1-465): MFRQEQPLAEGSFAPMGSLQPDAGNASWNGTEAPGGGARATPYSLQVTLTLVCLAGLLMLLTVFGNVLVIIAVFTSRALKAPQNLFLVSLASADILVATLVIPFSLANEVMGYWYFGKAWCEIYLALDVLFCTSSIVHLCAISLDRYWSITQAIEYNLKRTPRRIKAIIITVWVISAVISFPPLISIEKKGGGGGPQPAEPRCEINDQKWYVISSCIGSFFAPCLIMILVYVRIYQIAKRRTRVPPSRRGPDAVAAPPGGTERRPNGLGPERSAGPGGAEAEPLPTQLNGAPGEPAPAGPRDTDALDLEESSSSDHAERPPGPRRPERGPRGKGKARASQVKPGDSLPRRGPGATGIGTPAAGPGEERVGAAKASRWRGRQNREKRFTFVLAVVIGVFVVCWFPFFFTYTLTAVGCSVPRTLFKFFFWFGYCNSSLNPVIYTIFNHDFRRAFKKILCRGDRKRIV
Kind of assay: [3H]-rauwolscine radioligand receptor binding (competition) assay, α2A-adrenoceptor. As to conditions: recombinant mammalian S115 cell line; 1 nM [3H]-rauwolscine; 50 mM KH2PO4 pH 7.5; 30 min at 25° C.; read-out: α2A aff (Ki values). How it is done:
The affinity of the test compounds on the α2 -adrenoceptor was established using the recombinant mammalian S115 cell line expressing the human α2A (α2 -C10)-adrenoceptor (7) in a radioligand receptor binding assay. The cells were harvested and suspended in 30 v/w of 50 mM Tris with 5 mM EDTA (pH 7.5 at 4° C.) and homogenized in Teflon-glass homogenizer. Cell homogenate was then centrifuged twice at 47,800×g (Sorvall RC-5C) for 30 min at 4° C. with re-suspension by two strokes in Tris/EDTA buffer. The final pellet was re-suspended in ten v/w of incubation buffer (50 mM KH2 PO4 buffer, pH 7.5 at 25° C.) and distributed in aliquots to be stored at -80° C. for later use.
In a competition binding experiment, the radioligands were incubated at 1 nM [^3 H]-rauwolscine with the cell suspension (20-50 μg of total protein per tube) with or without presence of a test compound in 50 mM KH2 PO4 (pH 7.5 at 25° C.) in a total volume of 0.25 ml. Non-specific binding of the radioligand was determined using 0.1 mM oxymetazoline. After a 30 min incubation at 25° C., incubation was terminated by rapid filtration through GF/B filters using a cell harvester. Inhibition experiments were analysed using a non-linear regression curve-fitting computer program to obtain Ki values.
With `CN1CCc2c(cccc2OCc2ccc(F)c(F)c2)C1` [Compound 5d, 5-(3,4-difluorophenylmethoxy)-2-methyl-1,2,3,4-tetrahydroisoquinoline], the negative logarithm of the Ki (pKi) is 6.50. For `CN1CCc2c(cccc2OCCCCCC#N)C1` [Compound 5b, 5-(5-cyano-1-pentyloxy)-2-methyl-1,2,3,4-tetrahydroisoquinoline], the pKi is 5.98. For the molecule `CN1CCc2c(cccc2OCC2CCCCC2)C1` [Compound 5h, 5-cyclohexylmethoxy-2-methyl-1,2,3,4-tetrahydroisoquinoline], the pKi is 6.12. For `CN1CCc2cc(OCCCCCC#N)ccc2C1` [Compound 5c, 6-(5-cyano-1-pentyloxy)-2-methyl-1,2,3,4-tetrahydroisoquinoline] the value was 5.43. In the case of `CN1CCc2cccc(OCc3ccc(F)c(F)c3)c2C1` [Compound 5f, 8-(3,4-difluorophenylmethoxy)-2-methyl-1,2,3,4-tetrahydroisoquinoline], the negative-log Ki (pKi) is 6.31.

Take `CN1CCc2cc(OCc3ccc(F)c(F)c3)ccc2C1` [Compound 5e, 6-(3,4-difluorophenylmethoxy)-2-methyl-1,2,3,4-tetrahydroisoquinoline]: the pKi was 5.84. For `CCCCCCCCCCCCCCOc1cccc2c1CCN(C)C2` [Compound 5k, 5-tetradecanyloxy-2-methyl-1,2,3,4-tetrahydroisoquinoline], the pKi was 5.19. For `CCCCCCCCCCCCCCOc1ccc2c(c1)CCN(C)C2` [Compound 5l, 6-tetradecanyloxy-2-methyl-1,2,3,4-tetrahydroisoquinoline] the value was 6.58. For `CN1CCc2cc(OCC3CCCCC3)ccc2C1` [Compound 5i, 6-cyclohexylmethoxy-2-methyl-1,2,3,4-tetrahydroisoquinoline] the value was 6.01; for `CCCCOc1cccc2c1CCN(CCC)C2` [Compound 5g, 5-butoxy-2-propyl-1,2,3,4-tetrahydroisoquinoline], 6.58.

On to `CN1CCc2cccc(OCC3CCCCC3)c2C1` [Compound 5j, 8-cyclohexylmethoxy-2-methyl-1,2,3,4-tetrahydroisoquinoline], for which the negative-log Ki (pKi) is 6.76.

As for `CCCCCCCCCCCCCCOc1cccc2c1CN(C)CC2` [Compound 5m, 8-tetradecanyloxy-2-methyl-1,2,3,4-tetrahydroisoquinoline], the pKi is 4.60.
